# According to the supplement of paper PMC7806825:
# Tested on: McpC ligand-binding domain (Salmonella Typhimurium SL1344)
# Experiment: protein melting temperature (Tm) in presence of compound (degrees C); higher = more thermal stabilisation (possible ligand binding)
# Conditions: compound stock concentration: 10-20 mM, 2 uL in 10 uL reaction
smiles,measurement,setting,value
OC[C@H]1O[C@@H](O[C@@H]2[C@@H](CO)OC(O)(CO)[C@H]2O)[C@H](O)[C@@H](O)[C@H]1O (mixture of isomers) [Lactulose],protein melting temperature,Biolog plate: PM01,44.9
"C[N+](C)(C)CC(O)CC(=O)[O-] (racemic) [D,L-Carnitine]",protein melting temperature,Biolog plate: PM02A,44.4
"NCC(O)c1ccc(O)cc1 (racemic) [D,L-Octopamine]",protein melting temperature,Biolog plate: PM02A,43.9
C[N+](C)(C)CC(O)CC(=O)[O-] (racemic) [DL-Carnitine],protein melting temperature,Biolog plate: PM05,43.7
CCSCCC(N)C(=O)O (racemic) [DL-Ethionine],protein melting temperature,Biolog plate: PM04A,43.9
CC(O)C(N)=O (racemic) [DL-Lactamide],protein melting temperature,Biolog plate: PM03B,45.6
NC(=O)CCCCC1CCSS1 (racemic) [DL-Lipoamide],protein melting temperature,Biolog plate: PM04A,44.4
O=C(O)CC(O)C(=O)O (racemic) [DL-Malic acid],protein melting temperature,Biolog plate: PM01,44.5
CC1(O)CCOC(=O)C1 (racemic) [DL-Mevalonic acid Lactone],protein melting temperature,Biolog plate: PM05,43.8
CCC(N)C(=O)O (racemic) [DL-a-Amino-N-Butyric acid],protein melting temperature,Biolog plate: PM03B,44.3
O=P(O)(O)OC[C@H](O)CO (racemic) [DL-a-Glycerol Phosphate],protein melting temperature,Biolog plate: PM01,44.6
same,protein melting temperature,Biolog plate: PM04A,44.4
"CSCCC(NC(C)=O)C(=O)O (racemic) [N-Acetyl-D,L-Methionine]",protein melting temperature,Biolog plate: PM04A,43.7
"CC(O)CO (stereo not given) [1,2-Propanediol]",protein melting temperature,Biolog plate: PM01,44.8
OC[C@H]1O[C@@H](S)[C@H](O)[C@@H](O)[C@@H]1O [1-Thio-b-D-Glucose],protein melting temperature,Biolog plate: PM04A,44.5
"CC(O)C(C)O (stereo not given) [2,3-Butanediol]",protein melting temperature,Biolog plate: PM02A,44.2
"CC(=O)C(C)=O [2,3-Butanedione]",protein melting temperature,Biolog plate: PM02A,43.9
NCCO [2-Aminoethanol],protein melting temperature,Biolog plate: PM01,44.3
NCCP(=O)(O)O [2-Aminoethyl Phosphonic acid],protein melting temperature,Biolog plate: PM04A,43.6
O=C(O)c1ccccc1O [2-Hydroxybenzoic acid],protein melting temperature,Biolog plate: PM02A,45.4
O=S(=O)(O)CCO [2-Hydroxyethane Sulfonic acid],protein melting temperature,Biolog plate: PM04A,44.6
Nc1ncnc2c1ncn2[C@H]1C[C@H](O)[C@@H](CO)O1 [2`-Deoxyadenosine],protein melting temperature,Biolog plate: PM01,43.9
same,protein melting temperature,Biolog plate: PM05,44
Nc1ccn([C@H]2C[C@H](O)[C@@H](CO)O2)c(=O)n1 [2`-Deoxycytidine],protein melting temperature,Biolog plate: PM05,44.3
Nc1nc2c(ncn2[C@H]2C[C@H](O)[C@@H](CO)O2)c(=O)[nH]1 [2`-Deoxyguanosine],protein melting temperature,Biolog plate: PM05,43.7
O=c1[nH]cnc2c1ncn2[C@H]1C[C@H](O)[C@@H](CO)O1 [2`-Deoxyinosine],protein melting temperature,Biolog plate: PM05,43.9
O=c1ccn([C@H]2C[C@H](O)[C@@H](CO)O2)c(=O)[nH]1 [2`-Deoxyuridine],protein melting temperature,Biolog plate: PM05,44.4
CC(=O)C(C)O (stereo not given) [3-Hydroxy-2-butanone],protein melting temperature,Biolog plate: PM02A,43.5
O=C[C@@H](O)[C@H](O[C@@H]1O[C@H](CO)[C@H](O)[C@H](O)[C@H]1O)[C@H](O)CO [3-O-b-D-Galactopyranosyl-D-Arabinose],protein melting temperature,Biolog plate: PM02A,44.5
O=C(O)c1ccc(O)cc1 [4-Hydroxybenzoic acid],protein melting temperature,Biolog plate: PM02A,43.3
O=C(CO)[C@@H](O)[C@H](O)[C@@H](O)C(=O)O [5-Keto-D-Gluconic acid],protein melting temperature,Biolog plate: PM02A,43.9
O=C(O)[C@H](O)[C@@H](O)[C@H](O)[C@H](O)COP(=O)(O)O [6-Phospho-Gluconic acid],protein melting temperature,Biolog plate: PM04A,43.6
NC(=O)c1[nH]cnc1N [(5) 4-Amino-Imidazole-4(5)-Carboxamide],protein melting temperature,Biolog plate: PM05,43.7
CC(=O)CC(=O)O [Acetoacetic acid],protein melting temperature,Biolog plate: PM01,44.6
Nc1[nH]cnc2ncnc1-2 [Adenine],protein melting temperature,Biolog plate: PM03B,45.2
same,protein melting temperature,Biolog plate: PM05,44.1
Nc1ncnc2c1ncn2[C@@H]1O[C@H](CO)[C@@H](O)[C@H]1OP(=O)(O)O [Adenosine 2`-Monophosphate],protein melting temperature,Biolog plate: PM04A,43.8
"Nc1ncnc2c1ncn2[C@@H]1O[C@@H]2COP(=O)(O)O[C@H]2[C@H]1O [Adenosine 3`,5`-Cyclic Monophosphate]",protein melting temperature,Biolog plate: PM04A,43.9
same,protein melting temperature,Biolog plate: PM05,44.4
Nc1ncnc2c1ncn2[C@@H]1O[C@H](CO)[C@@H](OP(=O)(O)O)[C@H]1O [Adenosine 3`-Monophosphate],protein melting temperature,Biolog plate: PM04A,44.2
Nc1ncnc2c1ncn2[C@@H]1O[C@H](COP(=O)(O)O)[C@@H](O)[C@H]1O [Adenosine 5`-Monophosphate],protein melting temperature,Biolog plate: PM04A,43.9
Nc1ncnc2c1ncn2[C@@H]1O[C@H](CO)[C@@H](O)[C@H]1O [Adenosine],protein melting temperature,Biolog plate: PM01,43.8
same,protein melting temperature,Biolog plate: PM03B,45.4
same,protein melting temperature,Biolog plate: PM05,44.1
OCC(O)C(O)C(O)CO (stereo not given) [Adonitol],protein melting temperature,Biolog plate: PM01,44.8
NCCCCN=C(N)N [Agmatine],protein melting temperature,Biolog plate: PM03B,44.1
C[C@H](N)C(=O)N[C@@H](CC(=O)O)C(=O)O [Ala-Asp],protein melting temperature,Biolog plate: PM03B,45
C[C@H](N)C(=O)N[C@@H](CCC(N)=O)C(=O)O [Ala-Gln],protein melting temperature,Biolog plate: PM03B,45.1
C[C@H](N)C(=O)N[C@@H](CCC(=O)O)C(=O)O [Ala-Glu],protein melting temperature,Biolog plate: PM03B,45.2
C[C@H](N)C(=O)NCC(=O)O [Ala-Gly],protein melting temperature,Biolog plate: PM01,44.9
same,protein melting temperature,Biolog plate: PM03B,45.2
C[C@H](N)C(=O)N[C@@H](Cc1cnc[nH]1)C(=O)O [Ala-His],protein melting temperature,Biolog plate: PM03B,45.3
C[C@H](N)C(=O)N[C@H](C(=O)O)[C@@H](C)O [Ala-Thr],protein melting temperature,Biolog plate: PM03B,45.1
NC(=O)NC1NC(=O)NC1=O (stereo not given) [Allantoin],protein melting temperature,Biolog plate: PM03B,44.2
O=C1NC(=O)C(=O)C(=O)N1 [Alloxan],protein melting temperature,Biolog plate: PM03B,44.3
N#C[C@H](O[C@@H]1O[C@H](CO[C@@H]2O[C@H](CO)[C@@H](O)[C@H](O)[C@H]2O)[C@@H](O)[C@H](O)[C@H]1O)c1ccccc1 [Amygdalin],protein melting temperature,Biolog plate: PM02A,44.3
OC[C@H]1O[C@@H](Oc2ccc(O)cc2)[C@H](O)[C@@H](O)[C@@H]1O [Arbutin],protein melting temperature,Biolog plate: PM02A,43.7
NC(=O)NC(N)=O [Biuret],protein melting temperature,Biolog plate: PM03B,44.2
O=C(O)CC(Br)C(=O)O (stereo not given) [Bromosuccinic acid],protein melting temperature,Biolog plate: PM01,44.8
CCCCS(=O)(=O)O [Butane Sulfonic acid],protein melting temperature,Biolog plate: PM04A,44.4
CCCCCCCCCC(=O)O [Capric acid],protein melting temperature,Biolog plate: PM02A,42.4
CCCCCC(=O)O [Caproic acid],protein melting temperature,Biolog plate: PM02A,43.3
NC(=O)OP(=O)(O)O [Carbamyl Phosphate],protein melting temperature,Biolog plate: PM04A,44.7
C[N+](C)(C)CCO [Choline],protein melting temperature,Biolog plate: PM05,43.1
C/C(=C/C(=O)O)C(=O)O [Citraconic acid],protein melting temperature,Biolog plate: PM02A,43.7
CC(O)(CC(=O)O)C(=O)O (stereo not given) [Citramalic acid],protein melting temperature,Biolog plate: PM02A,44.1
N[C@@H](CS)C(=O)NCC(=O)O [Cys-Gly],protein melting temperature,Biolog plate: PM04A,42.9
NCCS [Cysteamine],protein melting temperature,Biolog plate: PM04A,42.8
Nc1ccn([C@@H]2O[C@H](CO)[C@@H](O)[C@H]2OP(=O)(O)O)c(=O)n1 [Cytidine 2`-Monophosphate],protein melting temperature,Biolog plate: PM04A,43.7
Nc1ccn([C@@H]2O[C@H](CO)[C@@H](OP(=O)(O)O)[C@H]2O)c(=O)n1 [Cytidine 3`-Monophosphate],protein melting temperature,Biolog plate: PM04A,45.4
Nc1ccn([C@@H]2O[C@H](CO)[C@@H](O)[C@H]2O)c(=O)n1 [Cytidine],protein melting temperature,Biolog plate: PM03B,44.7
same,protein melting temperature,Biolog plate: PM05,43.9
Nc1cc[nH]c(=O)n1 [Cytosine],protein melting temperature,Biolog plate: PM03B,45.2
same,protein melting temperature,Biolog plate: PM05,44.3
O=C(O)C(CO)OP(=O)(O)O [D-2-Phospho-Glyceric acid],protein melting temperature,Biolog plate: PM04A,44.1
O=C(O)C(O)COP(=O)(O)O [D-3-Phospho-Glyceric acid],protein melting temperature,Biolog plate: PM04A,44.9
C[C@@H](N)C(=O)O [D-Alanine],protein melting temperature,Biolog plate: PM01,43.9
same,protein melting temperature,Biolog plate: PM03B,44.9
same,protein melting temperature,Biolog plate: PM05,44
OC1OC[C@@H](O)[C@@H](O)[C@@H]1O (stereo partly drawn) [D-Arabinose],protein melting temperature,Biolog plate: PM02A,43.6
OC[C@@H](O)C(O)[C@H](O)CO [D-Arabitol],protein melting temperature,Biolog plate: PM02A,44.4
NC(=O)C[C@@H](N)C(=O)O [D-Asparagine],protein melting temperature,Biolog plate: PM03B,44.8
N[C@H](CC(=O)O)C(=O)O [D-Aspartic acid],protein melting temperature,Biolog plate: PM01,44.2
same,protein melting temperature,Biolog plate: PM03B,44.9
same,protein melting temperature,Biolog plate: PM05,44.4
O=C(O)CCCC[C@@H]1SC[C@@H]2NC(=O)N[C@@H]21 [D-Biotin],protein melting temperature,Biolog plate: PM05,44.5
O=C(CO)[C@@H](O)[C@H](O)[C@H](O)CO [D-Fructose],protein melting temperature,Biolog plate: PM01,44.3
C[C@@H](O)[C@H](O)[C@H](O)[C@@H](O)C=O [D-Fucose],protein melting temperature,Biolog plate: PM02A,43.3
OC[C@H]1OC(O)[C@H](O)[C@@H](O)[C@H]1O (stereo partly drawn) [D-Galactose],protein melting temperature,Biolog plate: PM01,44.8
O=C(O)[C@H]1OC(O)[C@H](O)[C@@H](O)[C@H]1O (stereo partly drawn) [D-Galacturonic acid],protein melting temperature,Biolog plate: PM01,44.4
N[C@@H]1[C@@H](O)[C@H](O)[C@@H](COP(=O)(O)O)O[C@@H]1O [D-Glucosamine-6-Phosphate],protein melting temperature,Biolog plate: PM04A,44.1
O=C[C@H](O)[C@@H](O)[C@H](O)[C@H](O)COP(=O)(O)O [D-Glucose-6-Phosphate],protein melting temperature,Biolog plate: PM01,44.6
same,protein melting temperature,Biolog plate: PM04A,43.8
N[C@H](CCC(=O)O)C(=O)O [D-Glutamic acid],protein melting temperature,Biolog plate: PM03B,45
same,protein melting temperature,Biolog plate: PM05,44.8
COC(=O)[C@@H](C)O [D-Lactic acid Methyl Ester],protein melting temperature,Biolog plate: PM02A,44.4
OC[C@@H](O)[C@@H](O[C@@H]1O[C@H](CO)[C@H](O)[C@H](O)[C@H]1O)[C@H](O)[C@@H](O)CO [D-Lactitol],protein melting temperature,Biolog plate: PM02A,44.7
NCCCC[C@@H](N)C(=O)O [D-Lysine],protein melting temperature,Biolog plate: PM03B,44.3
O=C(O)C[C@@H](O)C(=O)O [D-Malic acid],protein melting temperature,Biolog plate: PM01,43.6
OC[C@@H](O)[C@@H](O)[C@H](O)[C@H](O)CO [D-Mannitol],protein melting temperature,Biolog plate: PM01,44.7
